From patent US7425537B2, “SH2 domain binding inhibitors” (The United States of America as represented by the …, priority 2000, dated 2008)

Assays:
c-Met-Grb2 interaction = target: T1, c-Met-Grb2 interaction (Mus musculus, UniProt Q60631); assay: c-Met-Grb2 co-immunoprecipitation/immunoblot in intact 32D c-met cells after HGF/NK1 stimulation; type: cell-based, murine; settings: 32D c-met cells pretreated 16 h with 30 nM or 300 nM prior to HGF/NK1 stimulation
T1 construct: endogenous in cells; host or cells: murine 32D c-met cells
Protocol: To characterize the time period and dose which the Grb2 SH2 domain inhibitor (antagonist) compound of formula 4 enters intact cells, the murine IL-3-dependent cell line 32D c-met was used. The effects of the inhibitor on c-Met-Grb2 interaction was examined by co-immunoprecipitation/immunoblot analysis. Cells were cultured in RPMI 1640+15% FBS and 5% WEHI-3B conditioned medium. Intact 32Dc-met cells were treated with different amount (3, 30, 300 nM) of the compound for 1, 2, 4, and 16 h, then briefly stimulated with HGF/NK1 for 10 minutes before lysis, immunoprecipitated with anti-Grb2 antibodies (Santa Cruz), and immunoblotting with anti-c-Met (Santa Cruz), or anti-Grb2 (Transduction Lab). HGF/NK1 stimulated co-immunoprecipitation of the 145 kDa c-Met beta subunit with Grb2. When cells were pretreated for 16 h with 30 nM or 300 nM compound of formula 4 prior to HGF/NK1 stimulation, the amount of HGF receptor that was co-immunoprecipitated with Grb2 was reduced by approximately 50%.

[1] = test system: erbB-2 driven breast cancer cells; assay: Assay of cell proliferation (direct cell counting); type: cell-based; settings: FIG. 26, read-out: IC50, cell growth inhibition

T1 sequence (Q60631 whole entry): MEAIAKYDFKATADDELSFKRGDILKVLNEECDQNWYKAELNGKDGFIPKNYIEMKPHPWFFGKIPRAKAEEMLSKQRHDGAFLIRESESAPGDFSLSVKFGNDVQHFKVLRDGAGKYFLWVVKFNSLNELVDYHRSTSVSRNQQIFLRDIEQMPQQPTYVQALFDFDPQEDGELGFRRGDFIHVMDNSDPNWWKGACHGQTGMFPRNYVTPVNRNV

## NC(=O)C[C@@H]1NC(=O)C2(CCCCC2)NC(=O)C[C@@H](c2ccc(CP(=O)(O)O)cc2)C=CC[C@@H](Cc2cccc3ccccc23)CNC1=O [Compound 4a, 2-[(9S, 13S, 17R)-8, 11, 20-triaza-13-(naphthylmethyl)-7, 10, 19-trioxo-17-[4-(phosphonomethyl)phenyl]spiro[5.14]icos-15-en-9-yl]acetamide]
c-Met-Grb2 interaction
  Reduction of amount of HGF receptor co-immunoprecipitated with Grb2: approximately 50%

## NC(=O)C[C@@H]1NC(=O)C2(CCCCC2)NC(=O)[C@@H](CC(=O)O)[C@@H](c2ccc(CP(=O)(O)O)cc2)/C=C/C[C@@H](Cc2cccc3ccccc23)CNC1=O [Compound 233, 2-[(9S, 10S, 14S, 18S)-7, 16, 19-triaza-18-(carbamoylmethyl)-14-(naphthylmethyl)-8,17,20-trioxo-10-[4-(phosphonomethyl)phenyl]spiro[5.14]icos-11-en-9-yl]acetic acid]
[1]
  IC50: < 1000 nM
other
  melting point: 260 °C (dec.)
